Laboratory results as given in publication PMC5085765, “Discovery of Potent Carbonic Anhydrase and Acetylcholinesterase Inhibitors: 2-Aminoindan β-Lactam Derivatives” (International Journal of Molecular Sciences, 2016).

Tests used:
hCA I = molecular target: T1, hCA I (Homo sapiens, UniProt P00915); assay: hCA I inhibition, esterase assay with p-nitrophenylacetate as substrate; format: biochemical; settings: NPA substrate; for Ki: Lineweaver-Burk plots; for IC50: purified from human erythrocytes
T1 construct: from tissue; host or cells: human erythrocytes
Experimental: (§1) Erythrocytes were obtained from the Research Hospital at Atatürk University. The red cells were haemolysed with ice-cold water after washing with 0.9% NaCl. The hemolysate was applied to the prepared Sepharose-4B-tyrosine-sulfanylamide affinity gel. Both CA isoenzymes were purified by Sepharose-4B-L-tyrosine-sulfanilamide affinity chromatography in a single step [58, 59, 60]. Sepharose-4B-L-tyrosine-sulfanilamide was prepared according to a previous method. Thus, homogenate solution acidity was adjusted and supernatant was transferred to the previously prepared Sepharose-4B-L-tyrosine-sulphanilamide affinity column. The proteins flow in the column eluates was spectrophotometrically determined at 280 nm. All purification steps were performed at 4 °C. Protein quantity was determined at 595 nm according to the Bradford method. Bovine serum albumin was used as the standard protein [64, 65, 66]. To monitor purification of both isoenzymes, sodium dodecyl sulphate-polyacrylamide gel electrophoresis (SDS-PAGE) was used according to the procedure of Laemmli. In this application, the imaging method was performed in 10% and 3% acrylamide for the running and the stacking gel, respectively, with 0.1% SDS [68, 69, 70].
(§2) Enzyme activity was determined hydrolysis of p-nitrophenylacetate (PNA) to p-nitrophenolate at 348 nm according to the method of Verpoorte et al. and described previously. The inhibitory effects of β-lactam derivatives 2a–k were examined. To obtain the half maximal inhibitory concentration (IC50) values, CA I, and II activity was measured in the presence of β-lactam derivatives at different cuvette concentrations. Activity (%)-[β-lactam] graph was drawn for each of the β-lactam derivatives 2a–k. To determine Ki values, three different β-lactam derivative concentrations were tested. In these experiments, different substrate (PNA) concentrations were used and Lineweaver-Burk curves were drawn as previously described.

hCA II = molecular target: T2, hCA II (Homo sapiens, UniProt P00918); assay: hCA II inhibition, esterase assay with p-nitrophenylacetate as substrate; format: biochemical; settings: NPA substrate; for Ki: Lineweaver-Burk plots; for IC50: purified from human erythrocytes
T2 construct: from tissue; host or cells: human erythrocytes
Experimental: as §1, §2

T1 sequence (P00915 whole entry): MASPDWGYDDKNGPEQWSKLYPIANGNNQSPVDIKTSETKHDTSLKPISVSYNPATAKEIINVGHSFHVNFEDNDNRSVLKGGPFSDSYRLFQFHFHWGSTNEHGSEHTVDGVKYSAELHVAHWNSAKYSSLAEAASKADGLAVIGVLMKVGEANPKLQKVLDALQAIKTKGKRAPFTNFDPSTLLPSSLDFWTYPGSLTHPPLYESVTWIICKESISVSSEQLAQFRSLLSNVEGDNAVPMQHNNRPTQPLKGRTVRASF

Row | Compound | Ki (hCA I) | IC50 (hCA I) | Ki (hCA II) | IC50 (hCA II)
1 | CC(=O)O[C@@H]1C(=O)N(C2Cc3ccccc3C2)[C@@H]1c1ccccc1 (relative stereo) [Compound 2a, (3S*,4R*)-1-(2,3-Dihydro-1H-inden-2-yl)-2-oxo-4-phenylazetidin-3-yl acetate] | 0.44 ± 0.115 nM | 0.612 nM | 3.54 ± 0.405 nM | 5.21 nM
2 | COc1cccc([C@@H]2[C@H](OC(C)=O)C(=O)N2C2Cc3ccccc3C2)c1 (relative stereo) [Compound 2b, (3S*,4R*)-1-(2,3-Dihydro-1H-inden-2-yl)-2-(3-methoxyphenyl)-4-oxoazetidin-3-yl acetate] | 1.41 ± 0.547 nM | 2.3 nM | 3.15 ± 1.14 nM | 6.42 nM
3 | CC(=O)O[C@@H]1C(=O)N(C2Cc3ccccc3C2)[C@@H]1c1ccc(C)cc1 (relative stereo) [Compound 2c, (3S*,4R*)-1-(2,3-Dihydro-1H-inden-2-yl)-2-oxo-4-p-tolylazetidin-3-yl acetate] | 1.5 ± 0.657 nM | 2.11 nM | 2.96 ± 0.157 nM | 3.71 nM
4 | CC(=O)O[C@@H]1C(=O)N(C2Cc3ccccc3C2)[C@@H]1c1cccc(C)c1 (relative stereo) [Compound 2d, (3S*,4R*)-1-(2,3-Dihydro-1H-inden-2-yl)-2-oxo-4-m-tolylazetidin-3-yl acetate] | 1.49 ± 0.29 nM | 0.231 nM | 3.26 ± 0.708 nM | 4.18 nM
5 | CC(=O)O[C@@H]1C(=O)N(C2Cc3ccccc3C2)[C@@H]1c1cccc(Cl)c1 (relative stereo) [Compound 2e, (3S*,4R*)-2-(3-Chlorophenyl)-1-(2,3-dihydro-1H-inden-2-yl)-4-oxoazetidin-3-yl acetate] | 6.29 ± 2.07 nM | 3.98 nM | 8.34 ± 3.53 nM | 5.83 nM
6 | CC(=O)O[C@@H]1C(=O)N(C2Cc3ccccc3C2)[C@@H]1c1ccc(Cl)c(Cl)c1 (relative stereo) [Compound 2f, (3S*,4R*)-2-(3,4-Dichlorophenyl)-1-(2,3-dihydro-1H-inden-2-yl)-4-oxoazetidin-3-yl acetate] | 1.16 ± 0.514 nM | 1.63 nM | 1.5 ± 0.421 nM | 5.97 nM
7 | CC(=O)O[C@@H]1C(=O)N(C2Cc3ccccc3C2)[C@@H]1c1cccc(Br)c1 (relative stereo) [Compound 2g, (3S*,4R*)-2-(3-Bromophenyl)-1-(2,3-dihydro-1H-inden-2-yl)-4-oxoazetidin-3-yl acetate] | 0.35 ± 0.105 nM | 0.652 nM | 3.39 ± 1.16 nM | 3.81 nM
8 | CC(=O)O[C@@H]1C(=O)N(C2Cc3ccccc3C2)[C@@H]1c1ccccc1Br (relative stereo) [Compound 2h, (3S*,4R*)-2-(2-Bromophenyl)-1-(2,3-dihydro-1H-inden-2-yl)-4-oxoazetidin-3-yl acetate] | 0.91 ± 0.143 nM | 2.65 nM | 2.19 ± 0.921 nM | 5.21 nM
9 | CC(=O)O[C@@H]1C(=O)N(C2Cc3ccccc3C2)[C@@H]1c1ccccc1[N+](=O)[O-] (relative stereo) [Compound 2j, (3S*,4R*)-1-(2,3-Dihydro-1H-inden-2-yl)-2-(2-nitrophenyl)-4-oxoazetidin-3-yl acetate] | 1.09 ± 0.136 nM | 4.81 nM | 2.88 ± 1.17 nM | 5.02 nM
10 | CC(=O)O[C@@H]1C(=O)N(C2Cc3ccccc3C2)[C@@H]1c1ccc(F)cc1 (relative stereo) [Compound 2k, (3S*,4R*)-1-(2,3-Dihydro-1H-inden-2-yl)-2-(4-fluorophenyl)-4-oxoazetidin-3-yl acetate] | 0.94 ± 0.43 nM | 2.5 nM | 1.34 ± 0.539 nM | 6.86 nM
11 | CC(=O)OC1C(=O)N(C2Cc3ccccc3C2)C1c1ccc(Br)cc1 (stereo not drawn) [Compound 2ı, (3S*,4R*)-2-(4-Bromophenyl)-1-(2,3-dihydro-1H-inden-2-yl)-4-oxoazetidin-3-yl acetate] | 0.97 ± 0.245 nM | 2.55 nM | 0.93 ± 0.295 nM | 4.03 nM
